According to US20250152613A1, “COMPOSITIONS AND METHODS FOR COVID-19 TREATMENT” (101 THERAPEUTICS LTD., priority 2022, published 2025):

Legend:
[1] = test system: bleomycin-induced PF mice model; assay: bleomycin-induced pulmonary fibrosis (PF) mice model; format: in vivo, C57BL/6 mice
Description: Post COVID-19 pulmonary fibrosis (PF) is defined as the presence of persistent and different fibrotic tomographic changes, often combined with impairment in pulmonary function tests. The pathogenesis of post-COVID-19 PF is partially known and likely multifactorial. Excessive production of reactive oxygen species and non-protective mechanical ventilation are potential triggers for post-COVID-19 PF. To explore the beneficial effect of compound 1 in pulmonary fibrosis, a bleomycin-induced PF mice model was utilized. Bleomycin is known for its ability to induce lung injury resulting in an acute inflammatory response, and the inflammatory phase is followed by fibrotic changes. In this model, direct administration of bleomycin to the lungs decreases survival of treated mice, due to vast pulmonary damage. The study was performed in 5 treatment groups of C57BL/6 mice (n=10-12 per group) and included early or late treatment with compound 1 (1 mg/mouse), early treatment with dexamethasone (DEX) in an amount of 0.45 mg/mouse, vehicle, and naïve control groups. Early treatment was initiated on day 1, on the same day as bleomycin administration. Late treatment was initiated on day 14. The test items were injected in the vehicle, dexamethasone and Compound 1 early treatment groups, on days 1, 2, 3, 7, 14, 21 and 28. In the late treatment group, Compound 1 was administered on days 14, 15, 16, 21, 28 and 31. The test items were injected intravenously through the tail vein after pulmonary fibrosis model induction (bleomycin was induced by intratracheal administration of bleomycin (3.5 U/kg)). Animals were monitored for morbidity, mortality, body weight, and clinical signs. Selected clinical signs (i.e., physical appearance, activity, ability to respond to external stimulus, eyes, and respiration quality) were scored to provide a clinical score. Cytokine levels in BALF (Day 33) and serum (Days 17 & 32) were determined.

[2] = test system: moderate COVID-19 patients; assay: Phase II/Phase III study of Compound 1 Vs Dexamethasone for moderate COVID-19 with Standard of Care; format: in vivo, human; conditions: expected
Method: A prospective, randomized, multicenter, parallel group, double-blind, adaptive Phase II/Phase III study to evaluate safety and efficacy of Compound 1 Vs Dexamethasone for moderate COVID-19 disease along with Standard of Care is performed. The total duration of treatment administration for all patients is 3 days. The endpoints of the study are to evaluate efficacy of Compound 1 versus dexamethasone in moderate COVID-19 patients.
Compound 1 is contained in vials, each vial containing 20 mg of Compound 1 to be reconstituted in saline (0.9% NaCl) for bolus intravenous (IV) injection of 5 ml of solution.
The study is designed to determine rate of treatment-emergent adverse events (AE) and serious adverse events (SAE) including changes in clinical condition, vital signs and laboratory parameters.
Other endpoints of the study include: lowering mortality 28 or 60 days from administration; lowering rate of Intensive care units (ICU) admission; lowering mechanical ventilation or vasopressor therapy (28 days follow-up); improved clinical recovery rate [Time Frame: Day 10]-Proportion of patients who recovered within 10 days for which recovery is defined when the patient improves by 2 points in 11-point ordinal scale; an improvement in temperature, heart rate and oxygen saturation on days 1, 2, 4 and 7; decrease in viral load relative to admission levels according to RT-PCR from nasopharyngeal swab on days 3, 5 and 10; changes in levels of CRP, ferritin and CBC with differential; change in cytokine profile and lymphocyte sub-populations; and measurement of ACTH and morning cortisol levels.
Approximately 318 eligible patients are randomized in a 1:1 ratio to one of 2 treatment groups. Group 1: Compound 1, 20 mg per day+Standard of care. Group 2: Dexamethasone 6 mg+Standard of care.
Total expected study duration is approximately 60 days consisting of: a screening period: 7 days (Day-7 to Day 1) prior to randomization. Treatment period: Day 1 to Day 3. End of treatment assessment: Day 3 (for patients receiving Compound 1) and Day X (for Dexamethasone arm, based on investigator' discretion). […]

COVID-19 patients = conditions: diabetics; RECOVERY trial (Rayman et al. 2021); cited from earlier work
[3] = according to the literature; cited from earlier work
[4] = early treatment from day 1, i.v., compound 1 1 mg/mouse, DEX 0.45 mg/mouse, day 33, mean±standard deviation
[5] = late treatment from day 14, i.v., 1 mg/mouse, day 33, mean±standard deviation
[6] = late treatment with Compound 1, day 33
[7] = Compound 1 20 mg per day i.v. for 3 days + Standard of care vs Dexamethasone 6 mg
[8] = 10-30 mg i.v., single and 3 day repeated
[9] = out of 23 possibly or probably related AEs

C[C@@H]1C[C@H]2[C@@H]3CCC4=C/C(=N/OCCCO[C@H]5O[C@H](CO)[C@@H](O)[C@H](O)[C@@H]5O)C=C[C@]4(C)[C@@]3(F)[C@@H](O)C[C@]2(C)[C@@]1(O)C(=O)CO [Compound 1, 1-((8S,9R,10S,11S,13S,14S,16R,17R,E)-9-fluoro-11,17-dihydroxy-10,13,16-trimethyl-3-((3-(((2S,3S,4S,5S,6R)-3,4,5-trihydroxy-6-(hydroxymethyl)tetrahydro-2H-pyran-2-yl)oxy)propoxy)imino)-6,7,8,9,10,11,12,13,14,15,16,17-dodecahydro-3H-cyclopenta[a]phenanthren-17-yl)-2-hydroxyethan-1-one]
% Fibrosis - Digital morphometry [1, 4]: 8.25 ± 1.26% | Fibrosis score (MT) [1, 4]: 2.25 ± 0.5 | Pathological score (H&E) [1, 4]: 2.5 ± 0.58 | % Fibrosis - Digital morphometry [1, 5]: 5.2 ± 1.1% | Fibrosis score (MT) [1, 5]: 2 ± 0.7 | Pathological score (H&E) [1, 5]: 2 ± 0.7 | mortality rate (FIG. 1) ([1]; late treatment from day 14, compared with DEX and Compound 1 early groups, similar to naïve): lower mortality rate | overall effect on mortality and disease progression vs early treatment with DEX or Compound 1 ([1]; late treatment with Compound 1): more profound effect | lung fibrosis by histopathological evaluation vs. vehicle control [1, 6]: reduction in lung fibrosis | pathological and fibrosis scores and percentage of lung fibrosis compared to DEX treatment [1, 6]: slightly lower | hyperglycemia relative to the dexamethasone group [2, 7]: lower | recovery from moderate COVID-19 relative to the dexamethasone group [2, 7]: enhanced | mortality ([2]; Compound 1 20 mg per day i.v. for 3 days + Standard of care): lower mortality | correlation between dose escalation and AEs frequency or severity (healthy volunteers; 10, 20, 30 mg i.v.): no correlation | AE reported after exposure to Investigational Product (healthy volunteers; [8]): 29 | AEs possibly related to the IP (healthy volunteers; [8]): 13 | AEs probably related to the IP (healthy volunteers; [8]): 10 | Dose-Limiting Toxicities (DLTs) (healthy volunteers; [8]): No DLTs | Serious Adverse Events (SAEs) or severe AEs (healthy volunteers; [8]): No Serious Adverse Events (SAEs) or severe AEs | cases of hyperglycemia (healthy volunteers; [8]): single case | possibly or probably related AEs, total (healthy volunteers; [8]): 23 | post exposure AEs assessed as not related (healthy volunteers; [8]): 6 | total Adverse Events (AE) reported during the study (healthy volunteers; 15 healthy participants, 10, 20, 30 mg single i.v. doses and 30 mg once a day for 3 days, includes 4 before exposure): 33 | blood glucose changes after administration (healthy volunteers; 4 hours post any of the 24 administrations): no changes | severity of adverse events (healthy volunteers; all events): mild to moderate | severity of the hyperglycemia event (healthy volunteers; one individual): mild and transient | Blood Glucose after increase (healthy volunteers; one individual, increased from 97): 105 mg/dL | anxiety, number (healthy volunteers; [9]): 1 | anxiety, percent (healthy volunteers; [9]): 4.34% | chemistry AEs, number (healthy volunteers; [9]): 8 | chemistry AEs, percent (healthy volunteers; [9]): 34.8% | fatigue reports, number (healthy volunteers; [9]): 2 | fatigue reports, percent (healthy volunteers; [9]): 8.7% | hematology AEs, number (healthy volunteers; [9]): 6 | hematology AEs, percent (healthy volunteers; [9]): 26.1% | hypertension, number (healthy volunteers; [9]): 1 | hypertension, percent (healthy volunteers; [9]): 4.34% | insomnia, number (healthy volunteers; [9]): 2 | insomnia, percent (healthy volunteers; [9]): 8.7% | noncardiac chest pain, number (healthy volunteers; [9]): 1 | noncardiac chest pain, percent (healthy volunteers; [9]): 4.34% | skin rash, number (healthy volunteers; [9]): 2 | skin rash, percent (healthy volunteers; [9]): 8.7%

C[C@@H]1C[C@H]2[C@@H]3CCC4=CC(=O)C=C[C@]4(C)[C@@]3(F)[C@@H](O)C[C@]2(C)[C@@]1(O)C(=O)CO [DEX, dexamethasone, reference compound]
blood glucose levels (COVID-19 patients): significantly elevated | % Fibrosis - Digital morphometry ([1]; mouse, in vivo, iv): 6 ± 1.41% | Fibrosis score (MT) ([1]; mouse, in vivo, iv): 2.25 ± 0.5 | Pathological score (H&E) ([1]; mouse, in vivo, iv): 2.25 ± 0.5 | most frequently reported adverse effect [3]: insomnia
